{"source": "paper PMC6131501", "about": "“Urate transporter inhibitor lesinurad is a selective peroxisome proliferator-activated receptor gamma modulator (sPPARγM) in vitro” (Scientific Reports, 2018)", "key": {"[1]": {"tested_on": "PXR", "parameters": "method as in PMID 16565514", "conditions": "literature value; cited from earlier work"}, "[2]": {"molecular_target": "T1, PPARγ (Homo sapiens, UniProt P37231)", "T1 construct": "expressed in transfected cells; host or cells: HEK293T", "T1 sequence (P37231 238-503 limits assumed)": "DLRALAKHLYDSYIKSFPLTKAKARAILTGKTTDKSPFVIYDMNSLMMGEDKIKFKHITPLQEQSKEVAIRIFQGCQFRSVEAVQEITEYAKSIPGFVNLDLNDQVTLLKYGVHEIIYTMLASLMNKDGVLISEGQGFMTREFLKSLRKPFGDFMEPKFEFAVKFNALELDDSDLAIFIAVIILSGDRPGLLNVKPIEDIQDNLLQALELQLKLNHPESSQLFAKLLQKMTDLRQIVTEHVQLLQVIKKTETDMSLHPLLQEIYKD", "test": "Gal4 hybrid reporter gene assay PPARγ", "assay_type": "cell-based", "conditions": "Gal4 hybrid reporter, HEK293T, 12-14 h; mean ± SEM, at least three experiments", "description": "(§1) These in vitro test systems are based on a constitutively expressed hybrid receptor composed of the ligand binding domain of the respective human nuclear receptor and the DNA binding domain of the yeast receptor Gal4. A Gal4-inducible firefly luciferase serves as reporter gene and a constitutively expressed renilla luciferase is used for normalization of transfection efficacy and internal toxicity control[18],[19]. […] The Gal4-fusion receptor plasmids pFA-CMV-hPPARα-LBD[50], pFA-CMV-hPPARγ-LBD[50], pFA-CMV-hPPARδ-LBD[50], pFA-CMV-hLXRα-LBD[51], pFA-CMV-hLXRβ-LBD[51], pFA-CMV-hRXRα-LBD[52], pFA-CMV-hRXRβ-LBD[52], pFA-CMV-hRXRγ-LBD[52], pFA-CMV-hRARα-LBD[52], pFA-CMV-hRARβ-LBD[52], pFA-CMV-hRARγ-LBD[52], pFA-CMV-hFXR-LBD[53], pFA-CMV-hVDR-LBD[52], pFA-CMV-hCAR-LBD[52] and pFA-CMV-hPXR-LBD[52] coding for the hinge region and ligand binding domain (LBD) of the canonical isoform of the respective nuclear receptor have been reported previously. pFR-Luc (Stratagene) was used as reporter plasmid and pRL-SV40 (Promega) for normalization of transfection efficiency and cell growth.\n(§2) HEK293T cells were grown in DMEM high glucose, supplemented with 10% FCS, sodium pyruvate (1 mM), penicillin (100 U/mL) and streptomycin (100 μg/mL) at 37 °C and 5% CO2. The day before transfection, HEK293T cells were seeded in 96-well plates (3·10^4 cells/well). Before transfection, medium was changed to Opti-MEM without supplements. Transient transfection was carried out using Lipofectamine LTX reagent (Invitrogen) according to the manufacturer’s protocol with pFR-Luc (Stratagene), pRL-SV40 (Promega) and the corresponding Gal4-fusion nuclear receptor plasmid. 5 h after transfection, medium was changed to Opti-MEM supplemented with penicillin (100 U/mL), streptomycin (100 μg/mL), now additionally containing 0.1% DMSO and the respective test compound or 0.1% DMSO alone as untreated control. Each concentration was tested in duplicates and each experiment was repeated independently at least three times. Following overnight (12-14 h) incubation with the test compounds, cells were assayed for luciferase activity using Dual-Glo™ Luciferase Assay System (Promega) according to the manufacturer’s protocol. Luminescence was measured with an Infinite M200 luminometer (Tecan Deutschland GmbH). […] Fold activation was obtained by dividing the mean RLU of a test compound at a respective concentration by the mean RLU of untreated control."}, "[3]": {"tested_on": "murine PPARγ", "conditions": "read-out: PPARγ (EC50) literature; cited from earlier work"}, "[4]": {"tested_on": "PPARγ", "conditions": "cited from earlier work"}, "[5]": {"tested_on": "3T3-L1 mouse fibroblasts", "parameters": "method as in PMID 19048458", "conditions": "cited from earlier work"}, "[6]": {"tested_on": "adiponectin plasma levels", "parameters": "method as in PMID 19048458", "conditions": "in men; cited from earlier work"}, "[7]": {"parameters": "method as in PMID 18274627", "conditions": "HEK293T cells; cited from earlier work"}, "[8]": {"molecular_target": "T2, PPARα (Homo sapiens, UniProt Q07869)", "T2 construct": "expressed in transfected cells; host or cells: HEK293T", "T2 sequence (Q07869 239-466 limits assumed)": "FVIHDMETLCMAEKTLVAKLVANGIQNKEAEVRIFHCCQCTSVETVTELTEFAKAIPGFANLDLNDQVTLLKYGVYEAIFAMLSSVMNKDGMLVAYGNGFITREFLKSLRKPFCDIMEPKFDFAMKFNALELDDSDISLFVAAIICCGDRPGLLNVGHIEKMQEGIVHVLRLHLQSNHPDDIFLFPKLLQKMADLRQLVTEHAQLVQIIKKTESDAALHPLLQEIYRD", "test": "Gal4 hybrid reporter gene assay PPARα", "assay_type": "cell-based", "conditions": "Gal4 hybrid reporter, HEK293T, 12-14 h; mean ± SEM, at least three experiments", "description": "as §1, §2"}, "[9]": {"tested_on": "PPARα", "conditions": "cited from earlier work"}, "[10]": {"tested_on": "3T3-L1 adipocytes", "test": "Differentiation of 3T3-L1 adipocytes, Oil Red O staining", "assay_type": "cell-based, murine", "conditions": "rosiglitazone 2 μM; lesinurad up to 50 μM", "description": "For this, 3T3-L1 cells were treated with insulin, dexamethasone and isobutylmethylxanthine (IBMX) to induce their differentiation into mature adipocytes. […] 3T3-L1 cells were subcultured in DMEM containing 10% newborn calf serum in a humidified atmosphere at 37 °C, 5% CO2. Cells were differentiated into adipocytes within 14 days according to the method[54] reported by Zebisch and colleagues. In brief, cells were seeded in 6-well plates ([…]). […] At day 5, medium was changed to contain only insulin for another two days. Cells were then kept for lipid droplet accumulation in basal medium without additions until day 15. […] Differentiation of 3T3-L1 cells to adipocytes was confirmed by Oil Red O staining. For this, cells were washed with PBS and then fixed for 60 min with a formaldehyde solution (4% in PBS). Subsequently, cells were rinsed with 60% isopropanol and incubated with Oil Red O solution (0.3%) for 120 min."}, "[11]": {"tested_on": "PPARγ-regulated genes in 3T3-L1 adipocytes", "test": "PPARγ target gene quantification in 3T3-L1 adipocytes (qPCR)", "assay_type": "cell-based, murine", "description": "3T3-L1 cells were cultured and differentiated as described above. Cells were then lysed using TRIzol reagent (Ambion, Life Technologies, Carlsbad, CA, USA), and mRNA was isolated following the manufacturer’s protocol. DNA contaminations were digested using DNase (DNase I, RNase-free kit; Thermo Scientific, Waltham, MA, USA) and mRNA concentrations were measured with a NanoDrop2000 spectrophotometer (Thermo Scientific, Waltham, MA, USA). Subsequently, reverse transcription was performed using the high capacity RNA-to-cDNA kit (Applied Biosystems, Foster City, CA, USA). Quantitative real-time PCR was performed using specific primers for CD36, […] and CPT1A with a StepOnePlus real-time PCR system (Applied Biosystems, Foster City, CA, USA). Non-POU domain containing octamer binding protein (NonO) was used as reference gene for 3T3-L1. All samples were measured in duplicate and were analyzed using the ΔΔCt method. The following PCR primers were used: Adiponectin: 5′-TGACGACACCAAAAGGGCTC-3′ (fwd) and 5′-CACAAGTTCCCTTGGGTGGA-3′ (rev); CD36: 5′-TGCTGGAGCTGTTATTGGTG-3′ (fwd) and 5′-CATGAGAATGCCTCCAAACA-3′ (rev); FABP4: 5′-AGAAGTGGGAGTGGGCTTTG-3′ (fwd) and 5′-ACTCTCTGACCGGATGGTGA-3′ (rev); GLUT4: 5′-TGAAGAACGGATAGGGAGCAG-3′ (fwd) and 5′-GAAGTGCAAAGGGTGAGTGAG-3′ (rev); NonO: 5′-TGCTCCTGTGCCACCTGGTACTC-3′ (fwd) and 5′-CCGGAGCTGGACGGTTGAATGC-3′ (rev).\nResults (expressed as mean ± SEM % relative mRNA expression; n = 3): Adiponectin: untreated (0.1% DMSO): 124 ± 45%; […];"}, "[12]": {"molecular_target": "recombinant PPARγ LBD ligand binding domain fused to N-terminal GFP (human)", "sequence (P37231 whole entry, the tested form may be a part)": "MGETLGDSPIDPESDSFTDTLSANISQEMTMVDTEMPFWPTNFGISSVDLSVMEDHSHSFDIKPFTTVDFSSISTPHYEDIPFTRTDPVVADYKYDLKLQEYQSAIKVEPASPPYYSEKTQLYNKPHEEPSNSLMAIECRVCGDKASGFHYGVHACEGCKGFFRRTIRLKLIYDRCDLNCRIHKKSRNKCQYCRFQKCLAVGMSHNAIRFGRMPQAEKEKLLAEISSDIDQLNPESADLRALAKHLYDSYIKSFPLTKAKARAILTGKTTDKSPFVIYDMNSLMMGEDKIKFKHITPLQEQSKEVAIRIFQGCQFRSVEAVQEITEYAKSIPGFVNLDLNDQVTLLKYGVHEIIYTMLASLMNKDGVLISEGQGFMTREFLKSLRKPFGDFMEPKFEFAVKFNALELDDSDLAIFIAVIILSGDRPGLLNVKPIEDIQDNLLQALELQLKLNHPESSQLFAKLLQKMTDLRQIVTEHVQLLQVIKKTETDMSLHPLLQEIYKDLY", "test": "AlphaScreen or HTRF; homogeneous time-resolved FRET; 12 nM GFP-PPARγ LBD (acceptor) and 12 nM streptavidin-terbium cryptate with biotinylated coactivator peptide (donor); lesinurad at varying concentrations, 1% DMSO; 25 mM HEPES pH 7.5, 150 mM KF, 5% glycerol, 0.1% CHAPS, 5 mM DTT; 2 h at RT; referenced to recruitment with 1 μM rosiglitazone"}}, "note": "“Also recorded” adds a separate entry of the source. Where two headings read alike, the source gives them in different places. No end group written: not given here. *: point of attachment. Biotin = O=C1N[C@H]2[C@H](CS[C@H]2CCCCC(=O)*)N1", "data": [{"molecule": "CCOP(=O)(OCC)C(=Cc1cc(C(C)(C)C)c(O)c(C(C)(C)C)c1)P(=O)(OCC)OCC", "note": "[SR12813]", "values": [{"measurement": "EC50", "setting": "[1]", "value": 140, "unit": "nM"}]}, {"molecule": "CC(=O)NCCOC(=O)[C@H](Oc1cccc(C(F)(F)F)c1)c1ccc(Cl)cc1", "note": "[arhalofenate]", "values": [{"measurement": "EC50", "setting": "[2]", "value": "5400 ± 1100", "unit": "nM"}]}, {"molecule": "O=C(O)[C@H](Oc1cccc(C(F)(F)F)c1)c1ccc(Cl)cc1", "note": "[arhalofenic acid]", "values": [{"measurement": "EC50", "setting": "[2]", "value": "470 ± 20", "unit": "nM"}, {"measurement": "EC50", "setting": "[3]", "value": 12000, "unit": "nM"}]}, {"molecule": "CCc1oc2ccccc2c1C(=O)c1cc(Br)c(O)c(Br)c1", "note": "[benzbromarone]", "values": [{"measurement": "PPARγ literature activity", "setting": "[4]; no precise activity value reported", "value": "active[24]***"}, {"measurement": "expression of CD36, adiponectin and FABP4 (aP2)", "setting": "[5]", "value": "significantly induced"}, {"measurement": "adiponectin plasma levels", "setting": "[6]", "value": "enhanced adiponectin plasma levels"}, {"measurement": "expression of lipoprotein lipase (LPL) and acyl-CoA-synthetase", "setting": "[7]", "value": "induced"}]}, {"molecule": "CC(C)(Oc1ccc(C(=O)c2ccc(Cl)cc2)cc1)C(=O)O", "note": "[fenofibric acid]", "values": [{"measurement": "EC50", "setting": "[8]", "value": "6500 ± 500", "unit": "nM"}, {"measurement": "EC50", "setting": "[9]; literature value", "value": "[…]"}]}, {"molecule": "CO[C@H]1/C=C/O[C@@]2(C)Oc3c(C)c(O)c4c(O)c(c(/C=N/N5CCN(C)CC5)c(O)c4c3C2=O)NC(=O)/C(C)=C\\C=C\\[C@H](C)[C@H](O)[C@@H](C)[C@@H](O)[C@@H](C)[C@H](OC(C)=O)[C@@H]1C", "note": "[rifampicin]", "values": [{"measurement": "EC50", "setting": "[1]", "value": "[…]"}]}, {"molecule": "CN(CCOc1ccc(CC2SC(=O)NC2=O)cc1)c1ccccn1", "note": "(centres unmarked) [rosiglitazone]", "values": [{"measurement": "lipid accumulation during differentiation (Oil Red O staining)", "setting": "[10]", "value": "massive accumulation of lipid droplets; also recorded: massive storage of fat"}, {"measurement": "Adiponectin relative mRNA expression", "setting": "[11]", "value": "455 ± 111", "unit": "%"}, {"measurement": "CD36 relative mRNA expression", "setting": "[11]", "value": "468 ± 8", "unit": "%"}, {"measurement": "FABP4 relative mRNA expression", "setting": "[11]", "value": "338 ± 46", "unit": "%"}, {"measurement": "GLUT4 relative mRNA expression", "setting": "[11]", "value": "695 ± 145", "unit": "%"}, {"measurement": "EC50", "setting": "[4]; literature value", "value": "[…]"}]}, {"molecule": "CCO[C@@H](Cc1ccc(OCCc2ccc(OS(C)(=O)=O)cc2)cc1)C(=O)O", "note": "[tesaglitazar]", "values": [{"measurement": "EC50", "setting": "[8]", "value": "99 ± 5", "unit": "nM"}, {"measurement": "EC50", "setting": "[2]", "value": "49 ± 5", "unit": "nM"}, {"measurement": "EC50", "setting": "[9]; hybrid transactivation assay, 40 hours incubation, read-out: PPARα (EC50) literature", "value": 1700, "unit": "nM"}, {"measurement": "EC50", "setting": "[3]", "value": 250, "unit": "nM"}]}, {"molecule": "Biotin-NLVPDAASKHKQLSELLRGGSGS", "note": "[CBP derived peptide (biotin-…)]", "values": [{"measurement": "% recruitment with lesinurad relative to 1 μM rosiglitazone", "setting": "[12]", "value": 59, "unit": "%"}, {"measurement": "EC50 of lesinurad for induced recruitment", "setting": "[12]", "value": 44000, "unit": "nM"}]}]}
